Assay results as given in paper PMC11766601, “A Comparative Study of the In Vitro Intestinal Permeability of Pinnatoxins and Portimine” (Marine Drugs, 2025).

Key:
[1] = test system: Caco-2 cells; assay: Trans-epithelial electrical resistance (TEER) of differentiated Caco-2 monolayers; assay type: cell-based, human; details: irrespective of time (2, 6, 24 h) and concentration (8, 16, 32 ng/mL)
Procedure: (§1) All experiments were performed with human intestinal Caco-2 cells (ATCC-HTB37), acquired from the American Type Culture Collection (ATCC; Manassas, VA, USA). Caco-2 cells originate from a colorectal adenocarcinoma, but upon reaching confluence, they differentiate and express the characteristics of enterocytes. The cells were cultivated in minimum essential medium containing 5.5 mM D-glucose, Earle’s salts, and 2 mM L-alanyl-glutamine (MEM GlutaMAX™, Gibco, Bromont, QC, Canada) supplemented with 10% fetal bovine serum (FBS, Gibco), 1% non-essential amino acids, 50 U/mL penicillin, and 50 μg/mL streptomycin (Gibco) under humidified conditions (37 °C, 5% CO2, 95% humidity). The cells were grown for 3–4 days up to 80% confluence before trypsinization and sub-culture. For the experiments, the cells were seeded in TRANSWELL® plates (12 wells, 0.4 µm pore size; Costar®, Corning Incorporated, Corning, NY, USA) at a density of 90,000 cells/cm^2. Prior to toxin treatment, highly differentiated Caco-2 cells were obtained after 24–26 days of culture, with medium renewal every 2–3 days. Passage numbers between 30 and 40 were used for experiments.
(§2) PnTX-A, PnTX-G, PnTX-E, PnTX-H, and portimine stock solutions were prepared in methanol, while PnTX-F was provided in acetonitrile/acetic acid (50%/0.1%). For each toxin, the cells were incubated at 8, 16, and 32 ng/mL (diluted in HBSS) for 2 h, 6 h, and 24 h, with a final volume of 1.5% solvent. The controls were incubated with the cell culture medium containing the respective solvent of the toxin at 1.5%. Each experiment included three biological replicates. Two to three independent experiments were conducted.
Epithelial integrity was examined by measuring the TEER between the apical and basolateral compartments. After rinsing with a HBSS solution (HBSS, HEPES 5 mM, pH 7.4), the Caco-2 monolayers were equilibrated for 30 min at 37 °C with 300 and 1000 µL HBSS in the apical (A) and basolateral (B) chambers, respectively. Then, the content of the apical compartment was replaced with 500 µL HBSS-containing toxins. TEER was quantified with a Millipore Millicell Electrical Resistance System (ERS Millipore, EMD Millipore Corporation, Burlington, MA, USA). The mean value of two measurements per well before and after the treatment was calculated and multiplied by the surface of the insert to obtain Ω × cm^2. After blank subtraction, the results were presented as a percentage of the solvent control.

[2] = test system: Caco-2 cell monolayers; assay: Lucifer Yellow paracellular permeability (barrier integrity); assay type: cell-based, human; details: 24 h, all concentrations (8, 16, 32 ng/mL)
Procedure: as §1, §2
For the assay, both compartments of the insert system were washed with Hank’s balanced salt solution (HBSS). Then, 0.5 mL of 0.1 mg/mL Lucifer Yellow in HBSS buffer and 1 mL of pure HBSS buffer were added to the apical and basolateral compartments, respectively. After a 2 h incubation at 37 °C, the media of the basolateral compartments were collected and the fluorescence of each compartment was measured in triplicate (excitation: 405 nm, emission: 520 nm) with a FLUOstar Optima microplate reader (BMG Labtech, Ortenberg, Germany). After subtraction of the blank (HBSS), the permeability of the […] was calculated against the value obtained for pure LY and reported as % permeability.

[3] = Toxin crossing and apparent permeability across Caco-2 cell monolayers (A to B), LC-MS/MS; assay type: in vitro ADME, human; details: human, Caco-2
Procedure: as §1, §2
(§3) The apical and basolateral compartments were collected after 2, 6, and 24 h treatment time. Parts of the solutions that were used to load the apical compartments were also stored (T0) to take into account the real concentration and not the estimated concentration. All the samples were stored at −20 °C until LC/MS analysis.
(§4) The LC-MS/MS analysis of toxins was implemented for the quantitative analysis of toxins. The LC system was an Agilent 1200 (Agilent Technologies, Santa Clara, CA, USA). The chromatographic separation was performed using a column Hypersil GOLD® C18 50 mm × 2.1 mm, 1.9 μm (Thermo Scientific, Waltham, MA, USA). Eluent A consisted of water, and eluent B of acetonitrile/water at a ratio of 95:5 (v/v), with both eluents containing 50 mM formic acid and 2 mM ammonium formate. The LC flow rate was 0.4 mL/min, and the gradient was programmed as follows: 10% B held for 0.5 min, 10–90% B in 5 min, 90% B held for 1 min, 90–10% B in 0.5 min, and 10% B held for 3.0 min, for a total run time of 10 min. The injection volume was 5 μL, while the column temperature was maintained at 40 °C. The column effluent was transferred via a divert valve (Valco Instruments Co., Inc., Houston, TX, USA), either to the mass spectrometer (between 1.7 and 5.5 min) or to waste.
(§5) The detection system was constructed with an API 4000 triple quadrupole mass spectrometer (Sciex, Framingham, MA, USA) equipped with an ElectroSpray Ionization (ESI) source (Turbo V). The mass spectrometer was operated in positive ESI mode. The source temperature was set at 600 °C, and the spray voltage was 5500 V. Air was used as a nebulizer gas and an auxiliary gas, with a gas pressure of 40 and 60 psi, respectively. Meanwhile, the curtain gas and collision gas were nitrogen, with a gas pressure of 15 and 8 psi, respectively. The mass spectrometer was operated in multiple reaction monitoring mode (MRM). One transition was used for quantification (Q) and another as a qualifier transition (q). A mass resolution of 0.7 Da full width at half maximum (FWHD) was set on the first (Q1) and the third (Q3) quadrupoles. Instrument control and data were handled with Analyst software version 1.5.1 (Sciex, Framingham, MA, USA).
(§6) The portimine and PnTX retention times varied between 2.7 and 4.4 min (Figure S1). […]

[4] = test system: Caco-2 cell monolayers; assay: as above; assay type: in vitro ADME, human; details: for % theoretical amount of toxin crossing the Caco-2 cell monolayers: relative to theoretical loaded concentration; for Percentage of toxin crossing the Caco-2 cell monolayers: A to B, relative to quantified T0
Procedure: as §1, §2, §3, §4, §5, §6

C=C1CCCC2=NCC(C)C(C)CC23CCC(C(=O)O)=CC3C2OC3(CC4CCCC5(CCC6(OC(CCC6(C)O)C1)O5)O4)CC(C)C(O)C2O3 (centres unmarked) [PnTX-A]
effect on TEER [1]: no effect
effect on LY permeability [2]: significant increase
Papp ([3]; 2 and 6 h, 8-32 ng/mL, read-out: Papp, range of means): 12.5 to 21.3 nm/s
Papp at 2 h, 8 ng/mL ([3]; 2 h, loaded 8 ng/mL, A to B): 14.5 ± 10.3 nm/s
Papp at 2 h, 16 ng/mL ([3]; 2 h, loaded 16 ng/mL, A to B): 14 ± 2.1 nm/s
Papp at 2 h, 32 ng/mL ([3]; 2 h, loaded 32 ng/mL, A to B): 12.5 ± 3.9 nm/s
Papp at 6 h, 8 ng/mL ([3]; 6 h, loaded 8 ng/mL, A to B): 21.3 ± 3.8 nm/s
Papp at 6 h, 16 ng/mL ([3]; 6 h, loaded 16 ng/mL, A to B): 19.2 ± 9.5 nm/s
Papp at 6 h, 32 ng/mL ([3]; 6 h, loaded 32 ng/mL, A to B): 14.8 ± 4.1 nm/s
% theoretical amount of toxin crossing the Caco-2 cell monolayers ([4]; 2 h, 8 ng/mL): 2.83 ± 2.1%
% theoretical amount of toxin crossing the Caco-2 cell monolayers ([4]; 2 h, 16 ng/mL): 2.5 ± 0.33%
% theoretical amount of toxin crossing the Caco-2 cell monolayers ([4]; 2 h, 32 ng/mL): 2.60 ± 0.80%
Percentage of toxin crossing the Caco-2 cell monolayers ([4]; 2 h, loaded 8 ng/mL): 2.35 ± 1.66%
Percentage of toxin crossing the Caco-2 cell monolayers ([4]; 2 h, loaded 16 ng/mL): 2.26 ± 0.34%
Percentage of toxin crossing the Caco-2 cell monolayers ([4]; 2 h, loaded 32 ng/mL): 2.01 ± 0.63%
% theoretical amount of toxin crossing the Caco-2 cell monolayers ([4]; 6 h, 8 ng/mL): 4.08 ± 0.52%
% theoretical amount of toxin crossing the Caco-2 cell monolayers ([4]; 6 h, 16 ng/mL): 3.42 ± 1.63%
% theoretical amount of toxin crossing the Caco-2 cell monolayers ([4]; 6 h, 32 ng/mL): 3.12 ± 1.05%
Percentage of toxin crossing the Caco-2 cell monolayers ([4]; 6 h, loaded 8 ng/mL): 3.44 ± 0.62%
Percentage of toxin crossing the Caco-2 cell monolayers ([4]; 6 h, loaded 16 ng/mL): 3.10 ± 1.53%
Percentage of toxin crossing the Caco-2 cell monolayers ([4]; 6 h, loaded 32 ng/mL): 2.39 ± 0.65%
amount of toxin crossing the intestinal barrier in vitro ([4]; regardless of the concentration loaded, 2 and 6 h): < 4%
permeability / oral bioavailability class from Caco-2 Papp ([4]; threshold Papp > 1.5 × 10^−6 cm·s^−1 = highly penetrative): poor permeability
